What was measured:
[1] = molecular target: T1, Glucose-dependent insulinotropic receptor (Homo sapiens, UniProt Q8TDV5); assay: Agonist activity at human GPR119
T1 sequence (Q8TDV5 whole entry): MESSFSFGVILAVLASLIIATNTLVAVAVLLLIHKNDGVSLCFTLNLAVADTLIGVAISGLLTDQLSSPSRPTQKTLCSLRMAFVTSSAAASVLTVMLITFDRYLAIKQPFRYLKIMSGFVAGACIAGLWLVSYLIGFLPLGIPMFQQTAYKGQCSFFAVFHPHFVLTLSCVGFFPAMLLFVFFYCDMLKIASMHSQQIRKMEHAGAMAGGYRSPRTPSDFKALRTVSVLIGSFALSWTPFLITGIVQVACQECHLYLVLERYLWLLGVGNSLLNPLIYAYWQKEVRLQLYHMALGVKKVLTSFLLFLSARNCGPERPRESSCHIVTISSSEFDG

Dipeptidyl peptidase 4 [2] = molecular target: T2, Dipeptidyl peptidase 4 (Homo sapiens, UniProt P27487); assay: Inhibition of recombinant human DPP4 using Gly-Pro-AMC as substrate preincubated for 10 mins followed by substrate addition
T2 sequence (P27487 whole entry): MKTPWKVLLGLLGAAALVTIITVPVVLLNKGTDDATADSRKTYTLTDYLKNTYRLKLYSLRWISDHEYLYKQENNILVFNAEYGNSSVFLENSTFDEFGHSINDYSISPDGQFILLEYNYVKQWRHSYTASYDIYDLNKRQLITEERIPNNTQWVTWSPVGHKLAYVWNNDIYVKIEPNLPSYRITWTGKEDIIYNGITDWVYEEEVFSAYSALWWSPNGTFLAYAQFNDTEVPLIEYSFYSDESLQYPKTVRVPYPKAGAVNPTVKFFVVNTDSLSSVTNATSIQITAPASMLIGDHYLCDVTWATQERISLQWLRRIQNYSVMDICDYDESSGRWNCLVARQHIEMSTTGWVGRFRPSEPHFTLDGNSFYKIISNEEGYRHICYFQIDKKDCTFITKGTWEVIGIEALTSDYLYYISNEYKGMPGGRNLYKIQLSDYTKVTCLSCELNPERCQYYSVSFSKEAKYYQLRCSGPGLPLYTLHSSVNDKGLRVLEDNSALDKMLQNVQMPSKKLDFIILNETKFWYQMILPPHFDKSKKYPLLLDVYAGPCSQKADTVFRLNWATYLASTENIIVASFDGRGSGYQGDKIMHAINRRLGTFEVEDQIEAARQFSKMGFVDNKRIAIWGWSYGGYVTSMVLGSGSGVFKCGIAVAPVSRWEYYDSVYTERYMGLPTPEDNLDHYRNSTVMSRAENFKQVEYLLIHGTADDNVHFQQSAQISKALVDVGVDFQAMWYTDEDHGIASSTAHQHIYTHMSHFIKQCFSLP

Dipeptidyl peptidase 4 [3] = molecular target: T2, Dipeptidyl peptidase 4; assay: Inhibition of recombinant human DPP4 using Gly-Pro-AMC as substrate preincubated for 10 mins followed by substrate addition by florescence assay
[4] = molecular target: T3, Sodium/glucose cotransporter 1 (Homo sapiens, UniProt P13866); assay: Inhibition of human SGLT1
T3 sequence (P13866 whole entry): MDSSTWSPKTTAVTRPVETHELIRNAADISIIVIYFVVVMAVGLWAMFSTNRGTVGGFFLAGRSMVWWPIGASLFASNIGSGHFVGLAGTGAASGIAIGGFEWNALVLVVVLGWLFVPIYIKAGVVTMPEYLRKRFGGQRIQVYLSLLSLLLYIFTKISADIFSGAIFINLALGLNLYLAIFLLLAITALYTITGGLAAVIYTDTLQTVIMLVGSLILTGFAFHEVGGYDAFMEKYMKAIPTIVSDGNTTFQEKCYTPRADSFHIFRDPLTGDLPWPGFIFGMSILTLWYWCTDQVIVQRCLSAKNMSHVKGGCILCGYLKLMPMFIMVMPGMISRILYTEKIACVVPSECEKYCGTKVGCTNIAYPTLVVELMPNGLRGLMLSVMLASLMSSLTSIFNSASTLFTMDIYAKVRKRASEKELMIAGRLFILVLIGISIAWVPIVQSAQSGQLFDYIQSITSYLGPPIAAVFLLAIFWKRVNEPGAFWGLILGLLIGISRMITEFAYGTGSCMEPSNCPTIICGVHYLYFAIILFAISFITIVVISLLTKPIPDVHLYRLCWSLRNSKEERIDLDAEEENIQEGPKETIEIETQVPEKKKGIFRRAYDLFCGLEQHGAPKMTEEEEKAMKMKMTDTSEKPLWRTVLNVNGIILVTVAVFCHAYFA

[5] = molecular target: T4, Sodium/glucose cotransporter 2 (Homo sapiens, UniProt P31639); assay: Inhibition of human SGLT2
T4 sequence (P31639 whole entry): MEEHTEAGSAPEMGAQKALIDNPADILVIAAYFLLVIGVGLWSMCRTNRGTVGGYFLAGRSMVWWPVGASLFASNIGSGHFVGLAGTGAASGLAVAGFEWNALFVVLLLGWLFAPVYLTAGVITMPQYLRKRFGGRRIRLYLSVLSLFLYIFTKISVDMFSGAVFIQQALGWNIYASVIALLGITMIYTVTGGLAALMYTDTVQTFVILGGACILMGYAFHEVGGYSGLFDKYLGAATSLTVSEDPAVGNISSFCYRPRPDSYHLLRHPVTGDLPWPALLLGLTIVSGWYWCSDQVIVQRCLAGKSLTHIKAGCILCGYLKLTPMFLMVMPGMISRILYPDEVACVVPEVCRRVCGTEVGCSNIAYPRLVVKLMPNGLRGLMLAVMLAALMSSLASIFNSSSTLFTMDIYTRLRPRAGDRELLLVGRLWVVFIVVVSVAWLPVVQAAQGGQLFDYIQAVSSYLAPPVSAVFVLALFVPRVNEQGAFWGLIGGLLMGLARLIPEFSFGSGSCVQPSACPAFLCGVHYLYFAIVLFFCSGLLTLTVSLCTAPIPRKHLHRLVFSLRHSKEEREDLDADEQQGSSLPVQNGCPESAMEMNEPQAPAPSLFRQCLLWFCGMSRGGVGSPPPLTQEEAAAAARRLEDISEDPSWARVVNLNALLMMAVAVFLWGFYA

[6] = Inhibition of Saccharomyces cerevisiae alpha-glucosidase using p-nitrophenyl glucopyranoside as substrate preincubated for 10 mins followed by substrate addition measured after 20 mins by spectrophotometric analysis
[7] = Toxicity in mouse; format: organism-based; settings: in vivo

CC(C)(C)OC(=O)N1C2CCC1CC(Nc1nc(Nc3ccc(S(C)(=O)=O)cc3F)nc3c1CCCC3)C2 (configuration not stated)
EC50 [1]: 270 nM

CC#CCn1c(N2CCC[C@@H](N)C2)cc(=O)n(Cc2cn(CC(=O)N(C)C)nn2)c1=O
IC50 (Dipeptidyl peptidase 4 [2]): 28.6 nM

Cc1ccc(NS(=O)(=O)c2ccc3c(c2)CCCC3)cc1
IC50 (Dipeptidyl peptidase 4 [3]): 2.8 nM

ONC[C@H]1C[C@@H](n2cc(Cc3ccc(C4CC4)cc3)c3c(Cl)cccc32)[C@H](O)[C@@H](O)[C@@H]1O
EC50 [4]: 37 nM | EC50 [5]: 33 nM

COc1ccc2c(c1)C(SCC(=O)NCc1ccc(C)cc1)c1ccc(Cl)cc1C2 (configuration not stated)
IC50 [6]: 80000 nM

N#C[C@@H]1CCCN1C(=O)CNC12CC3CC(CC(O)(C3)C1)C2 [VILDAGLIPTIN]
MTD [7]: 2000 mg/kg
